The results in this text go back to patent US5369111A, “Modulator agent and use thereof” (University of Vermont, priority 1992, dated 1994).

The subject of series [1] is S180 MDR cell strains A3 and A10. Kind of series: Modulation of acquired drug resistance in the S180 MDR cell strains A3 and A10. Format: cell-based, murine. To be noted: VBL, VCR and ADM. A digest of the protocol:
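MDR S180 lines in tubes (1×10^5 cells/ml) exposed to graded modulator added minutes before ADM, VBL or VCR at parental IC70s (2.0×10^-7 M ADM, 1.5×10^-8 M VBL, 4.5×10^-8 M VCR). Growth counted electronically at 72 h. Reversing concentration = minimum modulator giving 70% inhibition; duplicates, two experiments.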

A short description of series [2]: Clonogenic assay for cytotoxicity, MDR variant KB-V1. Format: cell-based, human. To be noted: human, kb-v1 cells; read-out: non-toxic concentration limit. An excerpt:
The analogs were examined in a panel of tumor cell lines of both intrinsic and acquired drug resistance, as described in Table 1. The rat colon adenocarcinoma cell lines RCC-2 and RCC-5 (ref. 13) were maintained in Ham's F12 medium supplemented with 5% heat-inactivated, fetal bovine serum (Sterile Systems. Hyclone, Logan, Utah). The two rat colon cancer cell lines differ in their degree of cellular differentiation; whereas the RCC-2 cell line is undifferentiated, the RCC-5 cell line is highly mucinous. The human epidermoid carcinoma cell line KB-3-1 and its MDR variant KB-Vl, selected by VBL treatment (ref. 14; courtesy of M. Gottesman. National Cancer Institute), was maintained in DMEM medium supplemented with 10%, heat-inactivated, fetal bovine serum. The murine sarcoma cell line […] and its MDR strains A3 and A10 selected by ADM treatment (ref. 15; courtesy of T. Tritton, Dept. Pharmacology, Univ. Vermont). were maintained in DMEM medium supplemented with 10% heat-inactivated, horse serum (Hazelton Biolog. Lenexa, Kans.). Stock cultures were subcultured twice weekly upon reaching the late exponential phase of population growth: population doubling times were 18-24 h. Antibiotics were not used in stock or experimental cultures. The MDR cell strains were grown in drug-free media for 48 h prior to experimental use.
Mid-exponential cultures were used for all assays. The RCC-2 and RCC-5 cell lines were seeded into 24-well plates at 2×10^4 cells/well and allowed to attach to the substratum for 16-18 h prior to treatment. The S180 cell lines were seeded into culture tubes at 1×10^5 cells/ml and treated immediately. Cytotoxicity was determined by quantitation of population growth after 72 h incubation by electronic particle counter (Coulter Electronics, Hialeah, Fla.). The human tumor cell lines were used in a clonogenic assay for cytotoxicity. Cells were seeded at 300 cells/dish, incubated overnight and then treated. Colonies were scored 7-11 days later. In all assays of analog modulation of drug sensitivity, the analog was added minutes prior to the addition of cytotoxic drug.
FIG. 10 represents the potency of the analog C-20'-deoxy deethyl vincovaline as a modulator of the drug sensitivity of various cell lines: the parental S180 cell line: the two rat colon cancer cell lines, RCC-2 and RCC-5; and the human epidermoid carcinoma cell line KB-3-1 and its MDR cell strain KB-V1, which expresses very high levels of drug resistance (200-500 fold). The enhancement of sensitivity was calculated as the sensitivity index =IC50 of the drug alone divided by the IC50 of the drug+analog. The drugs examined were ADM (o), VBL (Δ), and VCR (.quadrature.). The cytotoxicity of drug and analog treatments in the KB cell lines were measured by cloning efficiencies. The arrows denote the non-toxic concentration limit of the analog in each cell line.

Series [3] can be described thus: Viability (MTT test) of P388 R cells. Format: cell-based, mouse. To be noted: mouse; resistant cells P388 R, 24 h and 48 h; read-out: concentrations up to which no cytotoxicity is seen. An excerpt:
(§1) The sensitization of C-20'-deoxy C-20'-deethyl vincovaline (D-DEV) has been tested on sensitive and resistants P388 cell lines originating from mouse lympnoma.
(§2) The resistance to anticancerous drug has been induced on DBA2 mouses bearing P388 cells ascites and maintained by treatment with adryamycin.
(§3) This study has been carried out at least in triplicate.

The subject of the next series is P388 R cells. The series is described as follows: Sensitization of P388 R cells to antitumorous agents. Type of series: cell-based, mouse. As to the method: as §1, §2
The P388 R cells are incubated at 37° C. during 24 hours with constant subtoxic concentrations of antitumoral drugs and increasing concentrations of modulators from 1 to 100 μM.

A further series relates to RCC-5 cells. Kind of series: Modulation of intrinsic drug resistance, RCC-5. Type of series: cell-based, rat. To be noted: VCR.
The nature of series [4]: Viability (MTT test) of P388 S cells. Type of series: cell-based. To be noted: mouse; sensitive cells P388 S, 24 h and 48 h; read-out: concentrations up to which no cytotoxicity is seen.
Excerpt: as §1, §2, §3

As to `CC[C@]12C=CCN3CC[C@@]4(c5cc([C@]6(C(=O)OC)C[C@H]7CCCN(CCc8c6[nH]c6ccccc86)C7)c(OC)cc5N(C)[C@H]4[C@@](O)(C(=O)OC)[C@@H]1OC(C)=O)[C@@H]32` [analog n° 352, C-20'-deoxy-20'-deethyl-C-14', 16'-epi-VBL], the “range of resistance levels over which parental sensitivity was restored” value in series [1] is listed as 3-17 fold. For the same molecule, the MNTC was 20 µM in series [2], not below 100 µM in series [3] and not below 25 µM in series [4]. Moreover, in the series with P388 R cells (modulator 30 μM, ADM 1.72 μM, 1440 min), the “percentage of cellular survival” value worked out at 50%. Also, the “modulator effect on P388 R cells with ADM (in words)” value in the series on P388 R cells (modulator 100 μM, ADM 0.17 μM) is reported as “no effect”. The “maximum sensitization to VCR” value with RCC-5 cells (RCC-5) stood at 28 fold. Also, in the series with RCC-5 cells (RCC-5 compared to RCC-2), the “concentration overcoming the greater intrinsic resistance of RCC-5 to VCR” value was in the range of 10 to 20 µM.
